From patent US8592443B2, “Use of 4 cyclopropylmethoxy-N-(3,5 dichloro-1 oxido-pyridin-4 yl)-5-(methoxy)pyridine-2-carboxamide for the treatment of spinal cord traumas” (Sanofi, priority 2007, dated 2013)

Assays:
[1] = test system: model of spinal trauma in the mouse; assay: Beam balance test in a model of spinal trauma in the mouse; type: in vivo; details: for Travel time (% deficiency): 0.01 mg/kg po at +4 h then daily; for Travel time (% deficiency) / Travel time (% motor function deficiency): 100% = trauma + carrier; for Balance beam test result (time to reach the opposite end of the beam): 0.01 mg/kg orally 4 h after lesion then daily, OF1 mice; for Travel time (% motor function deficiency): 0.03 mg/kg po at +4 h and +6 h then daily
Procedure: The effects of 4-cyclopropylmethoxy-N-(3,5-dichloro-1-oxidopyridin-4-yl)-5-(methoxy)pyridine-2-carboxamide used according to the invention were evaluated in a model of spinal trauma in the mouse using the beam balance test (P. Barnéoud, NeuroReport 1997, 8, 2861-2865).
The Beam Balance test consists in placing the mouse at the end of a horizontal beam 30 cm long and 1.5 cm wide, raised 20 cm above the ground. The time required for the mouse to reach the opposite end of the beam is measured. The test is stopped after 12 seconds.
[…] female OF1 mice (Iffa Credo Lyon, France) weighing 12 to 14 g are placed in experimental cages (32×21×14 cm) provided with an endless supply of food and water, at the controlled temperature of 22±1° C.
The mice are subjected to a pre-learning phase which allows them to become familiar with the evaluation test and allows them to reach an optimal and identical level of performance.
The animals are subsequently divided up into three groups, and then a trauma is induced in a controlled manner in two of the three groups of mice before the beginning of the test phase.
This trauma consists of a lesion of the spinal cord located at the level of the thoracic vertebra Th8. The lesion is generated by 3 successive cycles of freezing-thawing by applying liquid nitrogen.
The functional consequences of the trauma are then measured at days 2, 7, 14 and 21 and also at day 28.
The following groups were formed: • Group 1 (no trauma) is composed of control animals which are not subjected to any trauma. • Group 2 (trauma alone) is composed of traumatized animals to which one dose per day of carrier (methyl-cellulose (MC) (0.6%) +tween-80 (0.5%) in water) is administered. • Group 3 (trauma+active ingredient 0.01 mg/kg at +4 hours) receives a solution containing 4-cyclopropylmethoxy-N-(3,5-dichloro-1-oxidopyridin-4-yl)-5-(methoxy)pyridine-2-carboxamide (0.01 mg/kg) in the carrier (MC (0.6%)+tween-80 (0.5%) in water), orally, 4 hours after the lesion, and then daily, orally, for 4 weeks after the trauma.
An experiment similar to that of Example 1 was carried out by administering ((4R)-4-[3-(cyclopentyloxy)-4-methoxyphenyl]pyrrolidine-2-one) to 34-week-old OF1 mice (Charles River, France) weighing 12 to 14 g, in the treatment of spinal cord traumas.
The mice were tested in the beam balance test, according to operating conditions identical to those described above.
The following groups were formed: • Group A (no trauma) is composed of control animals which are not subjected to any trauma. • Group B (trauma alone) is composed of traumatized animals to which one dose per day of carrier (2% PEG 200) is administered. • Group C (trauma+active ingredient 0.03 mg/kg at +4 hours) receives a solution containing (R)-(−)-Rolipram (0.03 mg/kg) in the carrier (2% PEG 200), orally, 4 hours and 6 hours after the lesion, and then daily, orally, for 4 weeks after the trauma.
The results obtained for each group of mice are expressed as percentage (%) deficiency of motor functions in the traumatized mice compared with the non-traumatized mice:
To do this, the difference in time taken between the group of mice tested to which (R)-(−)-Rolipram was administered (group C) and the group of non-traumatized mice (group A) is measured and expressed as a percentage relative to the difference in time taken between the traumatized mice to which one dose per day of carrier was administered (group B) and the time taken by the non-traumatized mice (group A). This ratio therefore gives the percentage deficiency in motor functions of the traumatized mice compared with the non-traumatized mice.
This calculation of the percentage deficiency of the mice tested is performed according to the following formula: % deficiency of group (c)=[(mean of the travel time of group C)−(mean of the travel time of group A)]/[(mean of the travel time of group B)−(mean of the travel time of group A)]

ferret = assay: Evaluation of emetic effects in the ferret; type: in vivo; details: observed up to 6 hours after administration; for Emetic effects (vomiting): ferrets
Procedure: The emetic capacity of 4-cyclopropylmethoxy-N-(3,5-dichloro-1-oxidopyridin-4-yl)-5-(methoxy)pyridine-2-carboxamide was evaluated in the ferret. Two groups of ferrets were used, the first being given the carrier (PEG 200) and the second being given 4-cyclopropyl-methoxy-N-(3,5-dichloro-1-oxidopyridin-4-yl)-5-(methoxy)pyridine-2-carboxamide in solution in the carrier (PEG 200), by oral gavage, at doses of 0.05 mg/kg and 0.1 mg/kg. The animals were observed continually for the 2 hours following administration and then every hour up to 6 hours after administration. The clinical signs (in particular retching and vomiting) were noted.
The emetic capacity of […] was evaluated in the ferret. Two groups of ferrets were used, the first receiving the carrier (PEG200) and the second receiving […] in solution in the carrier (PEG200), by oral gavage, at doses of 0.05 mg/kg and 0.1 mg/kg. The animals were observed continually for the 2 hours following administration and then every hour up to 6 hours after administration. The clinical signs were noted.

In the case of COc1cnc(C(=O)Nc2c(Cl)c[n+]([O-])cc2Cl)cc1OCC1CC1 [4-cyclopropylmethoxy-N-(3,5-dichloro-1-oxidopyridin-4-yl)-5-(methoxy)pyridine-2-carboxamide], the “Degree of motor function deficiency compared with (R)-(−)-Rolipram” value ([1]; 0.01 mg/kg po versus (R)-(−)-Rolipram 0.03 mg/kg po, traumatized mice) is reported as “less than that of the animals treated with (R)-(−)-Rolipram”, the “Travel time (% deficiency)” value ([1]; D + 2, 0% = no trauma) is reported as 84% and the “Balance beam test result (time to reach the opposite end of the beam)” value (“Balance beam test result” below) ([1]; D + 2 after trauma, test stopped after 12 seconds) is reported as 10.71 s. For the same compound, the “Travel time (% deficiency)” value ([1]; D + 7, 0% = no trauma) was 72%, the “Balance beam test result” value ([1]; D + 7 after trauma) was 8.67 s and the “Travel time (% deficiency)” value ([1]; D + 14, 0% = no trauma) was 49%. The “Balance beam test result” value ([1]; D + 14 after trauma) was 6.35 s, the “Travel time (% deficiency)” value ([1]; D + 21, 0% = no trauma) was 60% and the “Balance beam test result” value ([1]; D + 21 after trauma) was 6.17 s. For the same compound, the “Travel time (% deficiency)” value ([1]; D + 28, 0% = no trauma) was 44%, the “Balance beam test result” value ([1]; D + 28 after trauma) was 5.18 s and the “Travel time (% deficiency)” value ([1]; Mean of D + 2 to D + 28) was 62%. For the same compound, the “Re-establishment of motor functions versus non-treated traumatized animals” value ([1]; traumatized mice, curative administration (group 3 vs group 2)) was “better re-establishment in terms of motor functions” and the “Emetic effects (retching and vomiting)” value (ferret; 0.1 mg/kg by oral gavage in PEG 200, 5 ferrets) was “no retching or vomiting”.
With COc1ccc([C@@H]2CNC(=O)C2)cc1OC1CCCC1 [(R)-(−)-Rolipram, ((4R)-4-[3-(cyclopentyloxy)-4-methoxyphenyl]pyrrolidine-2-one), reference compound] the “Travel time (% motor function deficiency)” value ([1]; D + 2, 0% = no trauma) was 110%, the “Travel time (% motor function deficiency)” value ([1]; D + 7, 0% = no trauma) was 67% and the “Travel time (% motor function deficiency)” value ([1]; D + 14, 0% = no trauma) was 48%. For the same compound, the “Travel time (% motor function deficiency)” value ([1]; D + 21, 0% = no trauma) was 122%, the “Travel time (% motor function deficiency)” value ([1]; D + 28, 0% = no trauma) was 108% and the “Travel time (% motor function deficiency)” value ([1]; Mean of D + 2 to D + 28) was 91%. For the same compound, the “Emetic effects (vomiting)” value (ferret; 0.05 mg/kg by oral gavage in PEG200) was “induces vomiting” and the “Emetic effects (vomiting)” value (ferret; 0.1 mg/kg by oral gavage in PEG200) was “induces vomiting”.
